“Also recorded” adds a separate entry of the source. Like-named read-outs stand apart in the source and are kept apart here.
How the values were obtained:
[1] = target: T1, Estrogen Receptor (ER) (Homo sapiens, UniProt P03372); test: htSMT of Halo-ER in U2OS cells (fbound, Dfree); type: cell-based; details: for change in ER fbound (direction): follow-up of screen actives, dose titration or 100 nM
T1 construct: expressed in transfected cells
T1 sequence (P03372 1-595): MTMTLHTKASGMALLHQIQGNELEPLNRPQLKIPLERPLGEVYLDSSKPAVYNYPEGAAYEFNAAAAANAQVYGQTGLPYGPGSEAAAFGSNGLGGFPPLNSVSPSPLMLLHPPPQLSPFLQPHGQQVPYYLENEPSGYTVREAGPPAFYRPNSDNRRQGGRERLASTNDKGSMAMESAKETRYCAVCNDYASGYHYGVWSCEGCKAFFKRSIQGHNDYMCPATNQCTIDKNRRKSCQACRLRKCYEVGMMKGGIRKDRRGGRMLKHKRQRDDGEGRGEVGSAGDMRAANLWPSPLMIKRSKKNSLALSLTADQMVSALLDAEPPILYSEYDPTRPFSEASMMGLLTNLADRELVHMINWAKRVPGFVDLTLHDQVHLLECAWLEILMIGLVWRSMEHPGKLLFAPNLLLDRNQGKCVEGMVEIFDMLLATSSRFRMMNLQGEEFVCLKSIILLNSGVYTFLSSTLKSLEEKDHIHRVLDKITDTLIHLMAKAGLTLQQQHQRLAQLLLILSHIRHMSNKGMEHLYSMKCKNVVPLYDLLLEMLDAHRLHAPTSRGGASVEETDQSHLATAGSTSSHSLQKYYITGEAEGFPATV

[2] = target: T2, glucocorticoid receptor (GR) (Homo sapiens, UniProt P04150); test: htSMT of Halo-GR in U2OS cells; type: cell-based; details: 1 μM antagonist, singly or with cognate agonist, FIG. 36D
T2 construct: Because U2OS cells express GR endogenously, HaloTag was inserted right before the stop codon of endogenous NR3C1; endogenous in cells; host or cells: U2OS, CRISPR/Cas9 HaloTag knock-in at the endogenous NR3C1 locus
T2 sequence (P04150 1-777): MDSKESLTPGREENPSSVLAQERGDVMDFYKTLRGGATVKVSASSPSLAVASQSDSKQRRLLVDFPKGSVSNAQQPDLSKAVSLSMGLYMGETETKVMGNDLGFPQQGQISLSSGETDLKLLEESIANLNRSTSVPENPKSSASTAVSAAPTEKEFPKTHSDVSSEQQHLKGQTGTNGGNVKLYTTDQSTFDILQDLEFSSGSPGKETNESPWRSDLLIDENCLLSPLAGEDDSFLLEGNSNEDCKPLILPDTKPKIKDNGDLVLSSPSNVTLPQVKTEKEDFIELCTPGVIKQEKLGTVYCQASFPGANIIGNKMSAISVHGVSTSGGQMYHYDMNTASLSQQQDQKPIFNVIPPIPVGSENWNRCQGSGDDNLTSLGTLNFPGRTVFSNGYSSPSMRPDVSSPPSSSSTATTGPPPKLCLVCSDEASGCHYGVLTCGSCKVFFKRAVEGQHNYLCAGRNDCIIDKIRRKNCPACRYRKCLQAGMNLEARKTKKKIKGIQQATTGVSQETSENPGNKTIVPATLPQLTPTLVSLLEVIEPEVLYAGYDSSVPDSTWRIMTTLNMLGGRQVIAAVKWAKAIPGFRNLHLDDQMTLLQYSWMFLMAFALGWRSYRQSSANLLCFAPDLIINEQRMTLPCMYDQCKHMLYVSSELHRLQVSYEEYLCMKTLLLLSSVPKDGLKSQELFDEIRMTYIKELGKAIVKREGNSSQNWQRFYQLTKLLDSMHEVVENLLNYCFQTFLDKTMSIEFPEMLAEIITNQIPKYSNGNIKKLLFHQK
Description: Where appropriate, compounds were serially diluted in an Echo Qualified 384-Well Low Dead Volume Source Microplate (0018544, Beckman Coulter) to generate dose-titration source material.

[3] = target: androgen receptor (AR) (Homo sapiens, UniProt P10275)
[4] = target: T1, Estrogen Receptor (ER); test: kinetic SMT (kSMT) of ER after compound addition; type: cell-based; details: FIG. 18C, 18D
[5] = target: T3, ER (Homo sapiens, UniProt P03372); test: Western blot of ER after compound treatment; type: cell-based; details: 24 hours prior to lysis; MCF7, T47d, U2OS Halo-ER; FIG. 22A
T3 construct: host or cells: Halo-ER U2OS, MCF7 or T47d (immunofluorescence)
T3 sequence (P03372 1-595): T1 sequence (P03372 1-595)

[6] = target: T1, Estrogen Receptor (ER); test: residence time imaging of ER-Halo (track length survival); type: cell-based; details: 100 nM, versus DMSO, FIG. 18E

Sequence of androgen receptor (AR) (P10275 whole entry): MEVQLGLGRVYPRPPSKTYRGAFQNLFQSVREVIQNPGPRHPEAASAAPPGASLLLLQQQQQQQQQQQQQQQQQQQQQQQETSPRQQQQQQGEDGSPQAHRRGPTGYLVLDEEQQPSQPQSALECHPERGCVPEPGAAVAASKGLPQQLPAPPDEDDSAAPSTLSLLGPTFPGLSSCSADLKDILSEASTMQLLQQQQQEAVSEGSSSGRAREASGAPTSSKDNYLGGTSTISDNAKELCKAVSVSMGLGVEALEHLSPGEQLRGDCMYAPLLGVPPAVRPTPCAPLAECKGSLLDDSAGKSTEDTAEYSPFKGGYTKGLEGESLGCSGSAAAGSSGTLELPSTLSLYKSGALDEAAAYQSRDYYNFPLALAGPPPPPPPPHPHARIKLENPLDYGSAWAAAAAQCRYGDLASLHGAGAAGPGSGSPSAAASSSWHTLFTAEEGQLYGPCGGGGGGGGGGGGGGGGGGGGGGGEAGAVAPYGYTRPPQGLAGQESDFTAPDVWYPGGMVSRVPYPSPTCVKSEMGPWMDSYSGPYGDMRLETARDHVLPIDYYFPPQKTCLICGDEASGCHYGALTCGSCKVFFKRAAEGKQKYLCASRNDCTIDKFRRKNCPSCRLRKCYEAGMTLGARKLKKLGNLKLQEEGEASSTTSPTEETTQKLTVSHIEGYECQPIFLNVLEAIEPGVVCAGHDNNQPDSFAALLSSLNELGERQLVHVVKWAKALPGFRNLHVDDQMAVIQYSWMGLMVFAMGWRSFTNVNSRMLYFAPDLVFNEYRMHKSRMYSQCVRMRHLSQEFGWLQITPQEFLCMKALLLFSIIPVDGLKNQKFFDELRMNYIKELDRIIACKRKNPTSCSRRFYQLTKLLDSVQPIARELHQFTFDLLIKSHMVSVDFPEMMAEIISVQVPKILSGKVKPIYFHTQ

4-hydroxytamoxifen was tested, and the “change in ER fbound / ER movement in bioactive screen” value [1] was “significantly increased fbound” and the “maximal increase in fbound, compared” value [1] was “lower maximal increases in fbound”.

CN(C)c1ccc(C(c2ccc(N(C)C)cc2)c2cc([N+](=O)[O-])ccc2Cl)cc1 [AL082D06] was tested, and the “effect on GR chromatin binding (change in fbound)” value [2] was “decrease in chromatin binding”.

For CC(O)c1cc(C(=O)N[C@@H](C)Cn2ccc(-c3ccc(C#N)c(Cl)c3)n2)[nH]n1 (stereo partly shown) [Darolutamide], the “effect on AR chromatin binding (change in fbound)” value [3] was “decrease in chromatin binding”.

In the case of COc1cccc(-c2cc(F)ccc2[C@H]2Cc3nc(N)nc(C)c3C(=O)N2)n1 [HSP990], the “change in ER fbound (direction)” value [1] is reported as “increase in fbound” and the “time course of overall effect on ER movement” value (“time course of overall effect” below) [4] is reported as “reached a plateau after an hour”.

CC(C)C[C@H](NC(=O)[C@H](Cc1ccccc1)NC(=O)c1cnccn1)B(O)O [bortezomib] was tested, and the “time course of overall effect” value [4] was “slowly increasing over the four-hour measurement window”.

In the case of CC(C)C[C@H](NC(=O)[C@H](CCc1ccccc1)NC(=O)CN1CCOCC1)C(=O)N[C@@H](Cc1ccccc1)C(=O)N[C@@H](CC(C)C)C(=O)[C@@]1(C)CO1 [carfilzomib], the “time course of overall effect” value [4] is reported as “slowly increasing over the four-hour measurement window”.

In the case of C[C@]12CC[C@@H]3c4ccc(O)cc4C[C@@H](CCCCCCCCC[S+]([O-])CCCC(F)(F)C(F)(F)F)[C@H]3[C@@H]1CC[C@@H]2O (stereo partly shown) [fulvestrant], the “change in ER fbound / ER movement in bioactive screen” value ([1]; 1 μM compound versus DMSO, 5,067-molecule screen, FIG. 15, 18A) is reported as “increase in fbound; also recorded: significantly increased fbound” and the “ER degradation (western blot)” value [5] is reported as “leads to the degradation of ER”.

In the case of CC(C)c1cc(-c2n[nH]c(=O)n2-c2ccc3c(ccn3C)c2)c(O)cc1O [ganetespib], the “change in ER fbound (direction)” value [1] is reported as “increase in fbound”, the “decrease in total number of long binding events” value [6] is reported as “four” and the “time course of overall effect” value [4] is reported as “reached a plateau after an hour”.

— patent US20260220796A1, “Systems and Methods for High Throughput Single Molecule Tracking in Living Cells” (EIKON THERAPEUTICS, INC., priority 2022, published 2026)
